Data published in PMC3600326, “Design, Synthesis, and Evaluation of New Tripeptides as COX-2 Inhibitors” (Journal of Amino Acids, 2013).
Residues, ends and D or L forms follow the SMILES beside them.

Tests used:
hCOX-1 = target: T1, hCOX-1 (Homo sapiens, UniProt P23219); test: hCOX activity, TMPD oxidation with AA as substrate, COX-1 from human platelet microsomes; assay type: biochemical; conditions: means ± SEM from five experiments; *** = no active at 500 μM
T1 construct: COX-1 from human platelet microsomes; from tissue; host or cells: human platelets (microsomes) from donor buffy coat
T1 sequence (P23219 24-599): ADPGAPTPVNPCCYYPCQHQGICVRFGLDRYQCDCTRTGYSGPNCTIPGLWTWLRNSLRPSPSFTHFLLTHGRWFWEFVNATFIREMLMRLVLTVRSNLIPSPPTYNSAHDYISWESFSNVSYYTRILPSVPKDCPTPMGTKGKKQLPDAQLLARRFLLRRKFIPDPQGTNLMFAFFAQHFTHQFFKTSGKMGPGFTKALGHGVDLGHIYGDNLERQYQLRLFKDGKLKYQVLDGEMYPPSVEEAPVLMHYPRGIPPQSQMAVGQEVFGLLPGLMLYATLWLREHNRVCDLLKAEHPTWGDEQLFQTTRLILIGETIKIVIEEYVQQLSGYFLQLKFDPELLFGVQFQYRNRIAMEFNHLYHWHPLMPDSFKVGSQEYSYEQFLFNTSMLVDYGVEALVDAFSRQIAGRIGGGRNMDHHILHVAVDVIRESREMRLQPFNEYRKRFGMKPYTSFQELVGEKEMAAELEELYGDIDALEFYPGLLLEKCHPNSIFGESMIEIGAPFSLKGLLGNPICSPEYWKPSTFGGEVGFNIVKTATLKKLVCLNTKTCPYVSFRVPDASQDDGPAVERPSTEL
Experimental: Washed human platelets were prepared from blood anticoagulated with citrate-phosphate-dextrose, which was obtained from Centro de Transfusion de Galicia (Santiago de Compostela, Spain).
The upper layer containing platelets (platelet-rich plasma) was removed and centrifuged at 1000 g for 18 min. The resulting platelet pellet was recovered, resuspended with washing buffer, and centrifuged again at 1000 g for 15 min. Finally, the platelet pellet from this step was resuspended in a modified Tyrode-HEPES buffer (HEPES 10 mM; NaCl 140 mM; KCl 3 mM; MgCl2 0.5 mM; NaHCO3 5 mM; glucose 10 mM; pH 7.4) to afford a cell density of 3–3.5·10^8 platelet/mL. The calcium concentration in the extracellular medium was 2 mM [13].
(§1) The potential effects of the test drugs on total hCOX activity (bis-dioxygenase and peroxidase reactions) were investigated by measuring their effects on the oxidation of N,N,N′,N′-tetramethyl-p-phenylenediamine (TMPD) to […], using AA as common substrate for both hCOX-1 and hCOX-2, microsomal COX-2 prepared from insect cells (Sf21 cells) infected with recombinant baculovirus containing cDNA inserts for hCOX-2 (Sigma Aldrich Química S.A., Alcobendas, Spain), and COX-1 from human platelet microsomes (obtained as described in the above paragraph since, unlike hCOX-2, hCOX-1 is not available commercially).
(§2) Results shown in Table 3 are expressed as means ± SEM from five experiments. Means were compared by one-way analysis of variance (ANOVA) followed by Dunnett's post-hoc test.
(§3) This regression was performed using the data obtained with 4–6 different concentrations of each compound assayed, which inhibited the enzymatic activity of COX control isoform between 20 and 80%.

hCOX-2 = target: T2, hCOX-2 (Homo sapiens, UniProt P35354); test: hCOX activity, TMPD oxidation with AA as substrate, microsomal recombinant hCOX-2 from Sf21 insect cells; assay type: biochemical; conditions: for IC50: means ± SEM from five experiments, *** = no active at 500 μM, read-out: COX-2 (IC50); for Ratio, index of selectivity SI = [IC50(COX-2)]/[IC50(COX-1)]: COX-2 over COX-1, bounds use the highest concentration tested
T2 construct: purchased Sigma Aldrich Química S.A., Alcobendas, Spain; host or cells: Sf21 insect cells infected with recombinant baculovirus
T2 sequence (P35354 18-604): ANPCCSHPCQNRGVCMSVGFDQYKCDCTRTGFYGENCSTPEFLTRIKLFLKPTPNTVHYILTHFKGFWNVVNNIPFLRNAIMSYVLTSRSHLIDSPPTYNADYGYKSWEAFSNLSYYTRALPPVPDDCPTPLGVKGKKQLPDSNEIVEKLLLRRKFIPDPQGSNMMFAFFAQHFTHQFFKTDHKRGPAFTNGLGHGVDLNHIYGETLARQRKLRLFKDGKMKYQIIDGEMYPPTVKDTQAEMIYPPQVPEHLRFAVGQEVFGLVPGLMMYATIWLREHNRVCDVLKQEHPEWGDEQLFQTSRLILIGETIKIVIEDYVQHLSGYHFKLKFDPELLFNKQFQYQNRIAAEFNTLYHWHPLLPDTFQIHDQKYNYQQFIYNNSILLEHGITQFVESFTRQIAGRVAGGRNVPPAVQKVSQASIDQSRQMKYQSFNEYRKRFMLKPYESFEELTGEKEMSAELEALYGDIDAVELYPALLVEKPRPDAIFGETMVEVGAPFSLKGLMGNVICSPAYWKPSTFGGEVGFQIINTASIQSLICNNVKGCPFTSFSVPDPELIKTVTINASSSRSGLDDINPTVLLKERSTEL
Source text: as §1, §2, §3

COX-2 = test system: COX-2; set-up: method as in PMID 17640617; conditions: ELISA test; cited from earlier work

Compound | IC50 (hCOX-1) [µM] | IC50 (hCOX-2) [µM] | Ratio, index of selectivity SI = [IC50(COX-2)]/[IC50(COX-1)] (hCOX-2) | inhibition of COX-2 activity (COX-2)
COc1ccc(-c2nc(C(=O)N3CCN(C)CC3)sc2-c2ccc(OC)cc2)cc1 [FR122047, reference compound] | 93.8 ± 6.55 | > 500 | – | –
CSCC[C@H](NC(=O)CN)C(=O)N[C@@H](CC(=O)O)C(=O)O [Peptide S1, Gly-Met-Asp] (H-Gly-Met-Asp-OH) | 150 ± 2.34 | 94 ± 2.59 | 0.6255 | –
N=C(N)NCCC[C@H](NC(=O)[C@H](CCC(=O)O)NC(=O)CN)C(=O)O [Peptide S4, GER] (H-Gly-Glu-Arg-OH) | 99.3 ± 1.14 | 80.6 ± 2.14 | 0.8111 | –
N=C(N)NCCC[C@H](NC(=O)[C@@H](N)CC(=O)O)C(=O)N[C@@H](CS)C(=O)O [Peptide S5, DRC] (H-Asp-Arg-Cys-OH) | 161 ± 2.57 | 100 ± 2.33 | 0.6195 | –
N=C(N)NCCC[C@H](NC(=O)[C@H](CCC(=O)O)NC(=O)[C@@H]1CCCN1)C(=O)O [Peptide S7, PER] (H-Pro-Glu-Arg-OH) | 100 ± 2.19 | 88.2 ± 3.01 | 0.8792 | –
C[C@H](N)C(=O)N[C@@H](CCC(=O)O)C(=O)N[C@@H](CCCNC(=N)N)C(=O)O [Peptide S9, AER] (H-Ala-Glu-Arg-OH) | 221.6 ± 1.04 | 68.3 ± 5.43 | – | –
C[C@H](N)C(=O)NCC(=O)N[C@@H](CCCNC(=N)N)C(=O)O [Peptide S10, AGR] (H-Ala-Gly-Arg-OH) | 99.1 ± 1.55 | 79.2 ± 2.15 | 0.7991 | –
WCS | – | – | – | more than 85%

Now from value to compound, other results behind:

IC50 (hCOX-1) [µM] | IC50 (hCOX-2) [µM] | Ratio, index of selectivity SI = [IC50(COX-2)]/[IC50(COX-1)] (hCOX-2) | Compound | inhibition of COX-2 activity (COX-2)
143 ± 2.57 | 121 ± 2.33 | 0.8443 | C[C@H](NC(=O)[C@H](CCCNC(=N)N)NC(=O)[C@@H](N)CCC(=O)O)C(=O)O [Peptide S2, ERA] (H-Glu-Arg-Ala-OH) | –
152 ± 5.18 | 94.9 ± 2.12 | 0.6225 | NCC(=O)N[C@@H](Cc1c[nH]cn1)C(=O)N[C@@H](CCC(=O)O)C(=O)O [Peptide S3, Gly-His-Glu] (H-Gly-His-Glu-OH) | –
102 ± 1.14 | 91.2 ± 2.41 | 0.8914 | C[C@H](N)C(=O)N[C@@H](CCCNC(=N)N)C(=O)N[C@@H](C)C(=O)O [Peptide S6, ARA] (H-Ala-Arg-Ala-OH) | –
122 ± 3.78 | 91.7 ± 2.98 | 0.7484 | CC[C@H](C)[C@H](NC(=O)[C@H](Cc1c[nH]cn1)NC(=O)[C@@H](N)CCCCN)C(=O)O [Peptide S8, KHI] (H-Lys-His-Ile-OH) | –
